Patent publication US8759400B2, “Histone deacetylase inhibitors for enhancing activity of antifungal agents” (MethylGene Inc., priority 2005, dated 2014)
Where two headings read alike, the source gives them in different places. Each block holds one molecule with its values, some of them ahead of it.

Tests used:
[1] = tested on: C. glabrata (ATCC 90030); assay: MIC80 and checkerboard synergy with antifungal agents; format: cell-based, Candida glabrata
[2] = tested on: HMEC; assay: Mammalian cytotoxicity, MTT reduction
[3] = tested on: C. albicans (ATCC 90028); assay: MIC80 and checkerboard synergy with antifungal agents; format: cell-based, Candida albicans
[4] = tested on: HDAC; assay: HDAC inhibitory activity in fungal protoplasts (Fluor-de-Lys); format: cell-based, Candida albicans; details: C. albicans protoplasts; for HDAC inhibition, per cent in parentheses beside IC50 >20: concentration not given
Method: (§1) Protoplasts of C. albicans and C. glabrata are prepared by the […] method of Franzusoff et al.

[5] = tested on: HDAC; assay: as above; format: cell-based, Candida glabrata; details: C. glabrata protoplasts; for HDAC inhibition, per cent in parentheses beside IC50 >20: concentration not given
Method: as §1

[6] = tested on: A. fumigatus ATCC 1022; assay: MIC80 and checkerboard synergy, broth microdilution (NCCLS M38-A); format: cell-based, Aspergillus fumigatus; details: for conc. for 4-fold synergy: 48 hours
[7] = tested on: HMEC; details: human
[8] = tested on: HDAC; assay: HDAC inhibitory activity in fungal protoplasts (Boc-Lys(Ac)-AMC); format: cell-based, Aspergillus fumigatus; details: A. fumigatus protoplasts
[9] = tested on: C. dubliniensis; assay: Clinical isolates, CLSI M27-A2 broth microdilution and checkerboard; format: cell-based; details: Candida dubliniensis
[10] = tested on: C. glabrata (ATCC 90030); format: cell-based; details: agar plates containing 4×MIC of the relevant azole alone
[11] = Nakaseomyces glabratus, ATCC90030, compound alone, C. glabrata (ATCC 90030)
[12] = Candida albicans, ATCC90028, compound alone, C. albicans (ATCC 90028), read-out: MIC80
[13] = Nakaseomyces glabratus, ATCC90030, compound alone, C. glabrata (ATCC 90030), read-out: MIC80
[14] = with ketoconazole, A. fumigatus ATCC 1022
[15] = Aspergillus fumigatus, ATCC1022, compound alone, A. fumigatus ATCC 1022, read-out: MIC80
[16] = with fluconazole, A. fumigatus ATCC 1022
[17] = with itraconazole, A. fumigatus ATCC 1022
[18] = with voriconazole, A. fumigatus (ATCC 1022)

MIC50 [1, 11]: 6.25 µg/mL
Molecule: O=C(Cc1ccc(CCCCCc2ccccc2)cc1)NO

MIC50 [1, 11]: > 25 µg/mL
Molecule: O=C(Cc1ccc(CCCCc2ccc(C(F)(F)F)cc2)cc1)NO

MIC50 [1, 11]: 32 µg/mL
Molecule: O=C(Cc1cccc(CCCCc2ccccc2)c1)NO

MIC50 [1, 11]: > 25 µg/mL
Molecule: O=C(Cc1ccc(CCC#Cc2ccc3nonc3c2)cc1)NO

MIC50 [1, 11]: > 25 µg/mL
Molecule: O=C(Cc1ccc(CCCCc2ccc3c(c2)OCO3)cc1)NO

MIC50 [1, 11]: 12.5 µg/mL
Molecule: O=C(Cc1ccc(CCCCc2ccccc2C(F)(F)F)cc1)NO

MIC50 [1, 11]: 12.5 µg/mL
Molecule: O=C(Cc1ccc(CCCCc2cccc(C(F)(F)F)c2)cc1)NO

MIC50 [1, 11]: 3.1 µg/mL
Molecule: O=C(Cc1ccc(CCCCc2cc(F)c(F)cc2F)cc1)NO

MIC50 [1, 11]: > 25 µg/mL
Molecule: O=C(Cc1ccc(CCCCc2ccc3[nH]ccc3c2)cc1)NO

Molecule: O=C(CCCCCC/C(=N\O)c1ccc(-c2ccccc2)cc1)NO
MTT HMEC [2]: 6 µM

Molecule: O=C(NO)c1cccc(CCCc2ccccc2)c1 [Cpd 1]
MIC [3, 12]: > 16 µg/mL
HDAC inhibition IC50 [4]: 9.1 µg/mL
HDAC inhibition IC50 [5]: > 20 µg/mL
HDAC inhibition, per cent in parentheses beside IC50 >20 [5]: 38%

Molecule: O=C(NO)c1ccc(CCCCCc2ccccc2)cc1 [Cpd 3]
MTT HMEC [2]: 9 µM

MIC [1, 13]: > 50 µg/mL
MIC [3, 12]: > 8 µg/mL
HDAC inhibition IC50 [4]: > 20 µg/mL
HDAC inhibition, per cent in parentheses beside IC50 >20 [4]: 42%
HDAC inhibition IC50 [5]: > 20 µg/mL
HDAC inhibition, per cent in parentheses beside IC50 >20 [5]: 37%
Molecule: O=C(Cc1ccc(CCCc2ccccc2)cc1)NO [Cpd 5]
MTT HMEC [2]: 47 µM
conc. for 4-fold synergy [6, 14]: 4 µg/mL

MIC [1, 13]: 16 µg/mL
MIC [3, 12]: > 8 µg/mL
HDAC inhibition IC50 [4]: > 20 µg/mL
HDAC inhibition, per cent in parentheses beside IC50 >20 [4]: 15%
HDAC inhibition IC50 [5]: > 20 µg/mL
HDAC inhibition, per cent in parentheses beside IC50 >20 [5]: 27%
Molecule: O=C(CCc1ccc(CCc2ccccc2)cc1)NO [Cpd 7]
MTT HMEC [2]: 10 µM

Molecule: COC(c1ccc(N(C)C)cc1)C(C)/C=C(C)/C=C/C(=O)NO (stereo not drawn) [Cpd 10]
MTT HMEC [2]: 50 µM

HDAC inhibition IC50 [5]: 50 µg/mL
Molecule: COc1ccc(C(OC)C(C)(C)CCCCC(=O)NO)cc1 (stereo not drawn) [Cpd 11]
MTT HMEC [2]: 50 µM

Molecule: CC(/C=C/C(=O)NO)=C\C(C)Cc1ccc(N(C)C)cc1 (stereo not drawn) [Cpd 12]
MTT HMEC [2]: 44 µM
conc. for 4-fold synergy [6, 14]: 0.125 µg/mL

HDAC inhibition IC50 [4]: > 20 µg/mL
HDAC inhibition, per cent in parentheses beside IC50 >20 [4]: 18%
Molecule: C[C@H](/C=C/C=C/C(=O)NO)Oc1ccc(-c2ccccc2)cc1 [Cpd 15]

Molecule: O=C(NO)c1ccc(CCCC(O)c2ccc3ccccc3c2)cc1 (stereo not drawn) [Cpd 16]
MTT HMEC [2]: 25 µM

Molecule: O=C(/C=C/c1ccc(CNc2cccc(Cl)c2)cc1)NO [Cpd 18]
HDAC inhibition IC50 [4]: ~16 µg/mL

Molecule: Nc1ccc(-c2cccs2)cc1-c1cccs1 [Cpd 19]
conc. for 4-fold synergy (24 hr) ([1]; with ketoconazole, C. glabrata (ATCC 90030)): 0.5 (24 hr) μg/ml

HDAC inhibition IC50 [4]: > 20 µg/mL
HDAC inhibition, per cent in parentheses beside IC50 >20 [4]: 16%
Molecule: O=C(Cc1ccccc1)NC(=S)Nc1ccc(Nc2ccnc3ccsc23)cc1 [Cpd 20]
MTT HMEC [2]: 50 µM

Molecule: N#Cc1ccc(-c2ccc(OCCC(=O)NO)cc2)cc1 [Cpd 21]
MTT HMEC [2]: 50 µM

Molecule: O=C(NO)c1ccc(CN2c3ccccc3NC(=O)[C@H]2Cc2ccc3ccccc3c2)cc1 [Cpd 22]
HDAC inhibition IC50 [4]: ~0.6 µg/mL
MTT HMEC [2]: 8 µM

HDAC inhibition IC50 [4]: ~0.6 µg/mL
Molecule: O=C(NO)c1ccc(CN2c3ccccc3NC(=O)[C@H]2Cc2cccc(C(F)(F)F)c2)cc1 [Cpd 23]

Molecule: CC(Cc1ccc(C(C)(C)C)cc1)CN1C[C@@H](C)O[C@@H](C)C1 (stereo partly drawn) [Fenpropimorph, fenpropimorph, reference compound]
MIC ([1]; Nakaseomyces glabratus, ATCC90030, fenpropimorph alone, C. glabrata, read-out: Fenpropimorph MIC): 6.25 µg/mL

MIC [1, 13]: > 64 µg/mL
MIC [3, 12]: > 128 µg/mL
MTT HMEC [7]: 0.75 µM
HDAC inhibition IC50 [8]: 0.01 µg/mL
HDAC inhibition IC50 [4]: 0.01 µg/mL
HDAC inhibition IC50 [5]: 0.01 µg/mL
MIC ([6]; Aspergillus fumigatus, ATCC1022, 48 h, compound alone, A. fumigatus ATCC 1022, read-out: MIC80): > 128 µg/mL
Molecule: O=C(/C=C/c1ccc(CN(CCO)CCc2c[nH]c3ccccc23)cc1)NO [LAQ-824, reference compound]
conc. for 4-fold synergy [6, 14]: >128 µg/mL

Molecule: Nc1ccccc1NC(=O)c1ccc(CNC(=O)OCc2cccnc2)cc1 [MS275, reference compound]
MIC80 [1, 13]: > 64 µg/mL
MIC80 [3, 12]: > 128 µg/mL
MTT HMEC [7]: 22 µM
HDAC inhibition IC50 [8]: >40 µg/mL
HDAC inhibition IC50 [4]: >20 µg/mL
HDAC inhibition IC50 [5]: >20 µg/mL
MIC80 [6, 15]: > 128 µg/mL
conc. for 4-fold synergy [6, 14]: >128 µg/mL

Molecule: C[C@@H]([C@H](N)C(=O)N[C@H](C(=O)O)[C@H]1O[C@@H](n2ccc(=O)[nH]c2=O)[C@H](O)[C@@H]1O)[C@H](O)c1ccc(O)cn1 [Nikkomycin, nikkomycin, reference compound]
MIC ([3]; Candida albicans, ATCC90028, read-out: Nikkomycin MIC): 100 µg/mL

MIC80 [1, 13]: > 64 µg/mL
MIC80 [3, 12]: > 128 µg/mL
Molecule: O=C(CCCCCCC(=O)Nc1ccccc1)NO [SAHA, suberoylanilide hydroxamic acid, reference compound]
MTT HMEC [2]: 18 µM

Molecule: CC(/C=C/C(=O)NO)=C\[C@@H](C)C(=O)c1ccc(N(C)C)cc1 [TSA, trichostatin A, reference compound]
MIC80 [1, 13]: 64 µg/mL
MIC80 [3, 12]: > 128 µg/mL
HDAC inhibition IC50 [8]: 0.01 µg/mL
HDAC inhibition IC50 [4]: 0.07 µg/mL
HDAC inhibition IC50 [5]: ~0.06 µg/mL
MTT HMEC [2]: 1 µM
MIC80 [6, 15]: 64 to 128 µg/mL
conc. for 4-fold synergy [6, 14]: 4 µg/mL

MIC ([3]; Candida albicans, ATCC90028, terbinafine alone, C. albicans, read-out: Terbinafine MIC): 0.39 µg/mL
Molecule: CN(C/C=C/C#CC(C)(C)C)Cc1cccc2ccccc12 [Terbinafine, terbinafine, reference compound]

Molecule: CC(/C=C/C(=O)NO)=C\C(C)Cc1ccc(N(C)C)cc1 (stereo not drawn) [drawing 125]
MTT HMEC [2]: 44 µM

Molecule: CC(/C=C/C(=O)NO)=C\C(C)Cc1ccc(N(C)C)cc1 (stereo not drawn) [drawing 131]
conc. for 4-fold synergy (24 hr) ([1]; with itraconazole, C. glabrata (ATCC 90030)): 1.56 (24 hr) μg/ml
MTT HMEC [2]: 44 µM

Molecule: CC(/C=C/C(=O)NO)=C\C(C)Cc1ccc(N(C)C)cc1 (stereo not drawn) [drawing 137]
MTT HMEC [2]: 44 µM

Molecule: CC(/C=C/C(=O)NO)=C\C(C)Cc1ccc(N(C)C)cc1 (stereo not drawn) [drawing 143]
MTT HMEC ([2]; Table 9 head): 4.4e-05 µM

Molecule: O=C(Cc1ccc(CCCCc2ccccc2)cc1)NO [drawing 144]
MTT HMEC ([2]; Table 9 head): 1.3e-05 µM

Molecule: O=C(Cc1ccc(CCCc2ccccc2)cc1)NO [drawing 145]
MTT HMEC ([2]; Table 9 head): 4.7e-05 µM

Molecule: O=C(CCc1ccc(CCCc2ccccc2)cc1)NO [drawing 146]
MTT HMEC ([2]; Table 9 head): 4e-05 µM

Molecule: O=C(CCc1ccc(CCc2ccccc2)cc1)NO [drawing 147]
MTT HMEC ([2]; Table 9 head): 1e-05 µM

HDAC inhibition IC50 [8]: 2.0 µg/mL
Molecule: CC(/C=C/C(=O)NO)=C\C(C)Cc1ccc(N(C)C)cc1 (stereo not drawn) [drawing 148]
MTT HMEC [2]: 44 µM
conc. for 4-fold synergy [6, 16]: 0.25 µg/mL

Molecule: O=C(Cc1ccc(CCCCc2ccccc2)cc1)NO [drawing 149]
conc. for 4-fold synergy [6, 16]: >1 µg/mL

HDAC inhibition IC50 [8]: 2.0 µg/mL
Molecule: CC(/C=C/C(=O)NO)=C\C(C)Cc1ccc(N(C)C)cc1 (stereo not drawn) [drawing 150]
MTT HMEC [2]: 44 µM
conc. for 4-fold synergy [6, 17]: 0.25 µg/mL

Molecule: O=C(Cc1ccc(CCCCc2ccccc2)cc1)NO [drawing 151]
conc. for 4-fold synergy [6, 17]: >1 µg/mL

HDAC inhibition IC50 [8]: 2.0 µg/mL
Molecule: CC(/C=C/C(=O)NO)=C\C(C)Cc1ccc(N(C)C)cc1 (stereo not drawn) [drawing 152]
MTT HMEC [2]: 44 µM
conc. for 4-fold synergy [6, 18]: 0.25 µg/mL

Molecule: O=C(Cc1ccc(CCCCc2ccccc2)cc1)NO [drawing 153]
conc. for 4-fold synergy [6, 18]: 1 µg/mL

Molecule: OC(Cn1cncn1)(Cn1cncn1)c1ccc(F)cc1F [fluconazole]
MIC ([9]; 48 h, read-out: FLU MIC): 0.12 µg/mL
frequency of resistant C. glabrata mutants [10]: 5×10^−6

Molecule: C[C@@H](c1ncncc1F)[C@](O)(Cn1cncn1)c1ccc(F)cc1F [voriconazole, reference compound]
MIC ([9]; voriconazole alone, C. dubliniensis clinical isolates, CLSI M27-A2, 48 hour endpoint, read-out: VOR MIC): 0.007 µg/mL

Molecule: Oxamflatin [reference compound]
MIC80 ([1]; compound alone, C. glabrata (ATCC 90030)): >64 µg/mL
conc. for 4-fold synergy ([1]; with ketoconazole, C. glabrata (ATCC 90030), 48 hours): 128 µg/mL
MIC80 ([3]; compound alone, C. albicans (ATCC 90028)): >64 µg/mL
conc. for 4-fold synergy ([3]; with ketoconazole, C. albicans (ATCC 90028), 48 hours): 16 µg/mL
HDAC inhibition IC50 [8]: 5.0 µg/mL
HDAC inhibition IC50 [4]: >20 µg/mL
HDAC inhibition IC50 [5]: ~7 µg/mL
MTT HMEC [2]: 2 µM
MIC80 ([6]; compound alone, A. fumigatus ATCC 1022): >128 µg/mL
conc. for 4-fold synergy [6, 14]: >128 µg/mL
